In paper PMC9862096, “Interaction of a Homologous Series of Amphiphiles with P-glycoprotein in a Membrane Environment—Contributions of Polar and Non-Polar Interactions” (Pharmaceutics, 2023):
Values belong to the compound of their own block, whether it stands above or below them.

Assays:
mP–gp = molecular target: T1, mP–gp (Mus musculus, UniProt P21447); assay: Photolabeling of P–gp with [125I]-IAAP / IAAP displacement; format: binding; conditions: for Ki: Equation (S2), total concentrations, native membranes 1.0 mg/mL, read-out: dissociation constant, competitive inhibition of IAAP binding
T1 construct: made in house; host or cells: High-Five insect cells (Invitrogen), recombinant baculovirus; total membrane vesicles
T1 sequence (P21447 whole entry): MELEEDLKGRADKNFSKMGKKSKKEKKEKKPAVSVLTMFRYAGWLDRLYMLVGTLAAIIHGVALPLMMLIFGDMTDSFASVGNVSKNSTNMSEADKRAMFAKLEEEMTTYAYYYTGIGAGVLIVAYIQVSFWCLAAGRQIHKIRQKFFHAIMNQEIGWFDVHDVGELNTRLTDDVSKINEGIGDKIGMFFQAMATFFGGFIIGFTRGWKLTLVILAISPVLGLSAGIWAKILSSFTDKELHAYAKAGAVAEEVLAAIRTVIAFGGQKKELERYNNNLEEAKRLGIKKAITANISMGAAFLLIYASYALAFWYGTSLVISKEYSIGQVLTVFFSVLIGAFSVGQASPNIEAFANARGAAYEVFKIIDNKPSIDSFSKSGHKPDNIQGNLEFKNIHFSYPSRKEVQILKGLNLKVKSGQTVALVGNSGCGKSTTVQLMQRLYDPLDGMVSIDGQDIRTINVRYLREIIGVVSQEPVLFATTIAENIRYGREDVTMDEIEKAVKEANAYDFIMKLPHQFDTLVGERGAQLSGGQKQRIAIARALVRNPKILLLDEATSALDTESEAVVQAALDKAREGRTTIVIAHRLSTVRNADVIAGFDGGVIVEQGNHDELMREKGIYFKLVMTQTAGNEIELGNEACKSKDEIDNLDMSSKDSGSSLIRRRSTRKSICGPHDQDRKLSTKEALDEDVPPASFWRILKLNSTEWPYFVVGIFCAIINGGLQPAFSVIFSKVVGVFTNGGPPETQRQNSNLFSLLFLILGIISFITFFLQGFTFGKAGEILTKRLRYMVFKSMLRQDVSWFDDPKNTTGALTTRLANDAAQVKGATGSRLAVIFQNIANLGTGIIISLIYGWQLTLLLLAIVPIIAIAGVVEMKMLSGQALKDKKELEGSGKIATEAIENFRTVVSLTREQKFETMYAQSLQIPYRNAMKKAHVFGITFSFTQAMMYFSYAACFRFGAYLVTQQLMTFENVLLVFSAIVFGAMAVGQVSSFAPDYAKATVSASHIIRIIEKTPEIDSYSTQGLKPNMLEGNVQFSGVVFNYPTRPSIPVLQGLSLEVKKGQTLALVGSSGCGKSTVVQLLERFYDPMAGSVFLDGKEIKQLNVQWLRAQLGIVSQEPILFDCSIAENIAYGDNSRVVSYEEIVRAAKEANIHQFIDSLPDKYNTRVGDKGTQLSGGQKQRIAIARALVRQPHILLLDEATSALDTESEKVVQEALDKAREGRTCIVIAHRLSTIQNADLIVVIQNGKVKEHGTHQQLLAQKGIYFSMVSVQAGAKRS
Method: The native membranes of High-Five insect cells expressing mP–gp (1.0 mg/mL) were incubated at room temperature with the indicated concentrations of the inhibitor for 5 min. IAAP (5 to 7 nM) was later added, and the reaction mixture was further incubated for 5 min under subdued light. The samples were photocross-linked with 366 nm UV light for 10 min at room temperature, followed by electrophoresis and quantification, as described previously. The raw data are shown in the Supplementary Information (Figure S4). The results were first analyzed with the usual equation, considering the total concentration of IAAP and NBD amphiphile, as well as competitive inhibition of IAAP binding, see Supplementary Information (Equation (S2)). The dissociation constant considered for IAAP was taken from the literature, 412 nM [15]. The results were also analyzed with a formalism derived in this manuscript considering the distribution of the NBD amphiphile in the distinct environments (aqueous phase, lipid bilayer, and P–gp), the distribution of IAAP between the aqueous media and P–gp, and several equal and independent binding sites in P–gp’s binding pocket, Equation (10).
In this assay, in addition to the binding of the NBD amphiphiles to P–gp binding pocket, it is also necessary to consider the binding of IAAP. The concentration of IAAP used in the assay (5 nM) is several orders of magnitude smaller than that of the amphiphiles in study, and it is also smaller than the total concentration of P–gp (59 nM). Therefore, Equation (8) may be used to calculate the concentration of free ligand and protein. The fraction of IAAP bound to P–gp may then be calculated from Equation (10), where P^* is the concentration of P–gp available for IAAP binding. (10) IP/IT=−b−b^2−4ac/2aa=1; b=−1+KdIAAP/IT+P^*/IT; c=P^*/IT
The number of binding sites in P–gp binding pocket was varied from 1 to 5, and three situations were considered in the analysis: (i) full inhibition of IAAP binding when at least one NBD amphiphile is in the P–gp binding pocket ( i≥1 ), corresponding to P^*=P; (ii) inhibition of IAAP binding only when P–gp is fully saturated ( i=n ), corresponding to P^*=P+∑i=1n−1PLi; and (iii) an intermediate situation with IAAP displacement for i≥n−1 , corresponding to P^*=P+∑i=1n−2PLi .
The displacement of IAAP from P–gp binding pocket was calculated from Equation (11), where IP0 is the concentration of IAAP bound to P–gp in the absence of the NBD amphiphiles. (11) IAAP displacement %=100IP0−IP/IP0

[1] = Association (partition) with model membranes (LUVs POPE:POPC:POPS 45:35:20); format: physicochemical; conditions: aqueous phase to model lipid bilayer
Method: The model membranes with a phospholipid composition representative of that of the native membranes (POPE:POPC:POPS 45:35 20) were prepared from stock solutions of the required lipids in chloroform or in chloroform/methanol (87/13, v/v), as described before. The solvent-free lipid residue was hydrated at 40 °C with previously heated simplified ATPase assay buffer (with all components except Ouabain and DTT). Large Unilamelar Vesicles were prepared by extrusion through two-staked polycarbonate filters (100 nm pore diameter), and the size of the LUVs was analyzed by dynamic light scattering (Zetasizer Nano ZS, Malvern, UK) being close to the filter pore size.
The membranes were diluted to the chosen concentration with simplified ATPase assay buffer and warmed to 37 °C. The NBD amphiphiles were added from stocks in DMSO (final DMSO 1% v/v) by squirting the required volume into the membrane solution under gentle vortex. Fluorescence intensity was measured after 15 to 30 min incubation at 37 °C using a Cary Eclipse spectrofluorimeter (Varian, Singapore). The path length of the sample container was selected to guarantee that scattering at the excitation wavelength was smaller than 0.1 while maintaining a good signal/noise ratio (3, 5, or 10 mm).
The increase in fluorescence of the NBD amphiphiles when associated with the model membranes was well described by a simple partition (Equation (S3)). The low affinity of the less lipophilic amphiphiles for the native membranes required the use of high membrane concentrations, and the fluorescence was measured with the plate reader SpectraMax iD5 (Molecular Devices, Berkshire, UK), where the reading setup is not very sensitive to scatter. To guarantee that the high scatter intensity was not leading to artifacts in the measured fluorescence intensity of NBD–C4, titrations of NBD-C6 and NBD–C8 were also performed in the same plate. For these two latter amphiphiles, the results obtained for the partition coefficient were similar to those obtained for experiments with low scatter intensity. A small decrease in the fluorescence intensity from NBD–C8 was nevertheless observed at very high scatter intensities (OD ≥ 0.5), which was used to correct the signal from the less lipophilic amphiphiles, see Supplementary Information (Figure S5 and Equation (S4)). The molar volume considered for the lipid was 0.8 dm^3/mol, and 1.2 g/mL was considered for the density of the membrane proteins.
S3 – Partition of the NBD amphiphiles to lipid bilayers and native membranes
The fluorescence increase that accompanies the association of the NBD amphiphiles with the
model membra nes was well defined by a simple partition, equation S3.
If 1540 nm Lb= + S3, KVL[]
where IfW and If M are respec ti vel y the fluorescence intensity when all fluorescent amphiphile is
in the aqueous phase and ass oci ated with the membranes, LbK is the partition co eff icient P
between the aqueous and the lipid bilayer, V is the molar vo l u m e of the lipid when in the lipid L
bi l ayer, and [L] is the lipid concentration. […]

P–gp = assay: Partition coefficient to membrane protein from Equations (1) and (2), binding to P–gp only; format: physicochemical, mouse; conditions: binding to the protein P–gp only; for KPW→P: aqueous phase to protein; for KPLb→P: lipid bilayer to protein
Source text: (§1) From the partition coefficient obtained for the native membranes, KPW→M , and that for the model lipid bilayers, KPW→Lb , one can calculate the partition coefficient between the aqueous phase and the proteins in the membrane, KPW→P , and from the lipid bilayer to the proteins, KPLb→P , Equations (1) and (2), [40]. (1) KPW→M VM=KPW→PVP+KPW→Lb VLb (2) KPLb→P=KPW→P/KPW→Lb
(§2) In Equation (1) it is necessary to include the volume occupied by the proteins, and the values obtained will, therefore, depend on whether it is considered that the amphiphile may interact with all proteins in the membrane or with P–gp only.

[2] = Partition coefficient to membrane proteins from Equations (1) and (2), all membrane proteins with equal affinity; format: physicochemical, High-Five insect cells; conditions: binding to all membrane proteins with equal affinity; for KPW→P: aqueous phase to proteins; for KPLb→P: lipid bilayer to proteins
Source text: as §1, §2

[3] = cited from earlier work
[4] = cited from earlier work; for critical aggregation concentration (CAC): 25 °C, aqueous; for increase of CAC in the presence of co-solvent: e.g. 1 M trehalose
[5] = cited from earlier work; remark: listed apart in the source
[6] = section: binding to all membrane proteins with equal affinity
[7] = section: binding to the protein P–gp only

SMILES: CCCCNc1ccc([N+](=O)[O-])c2nonc12 [NBD–C4]
- Ki (mP–gp): 14 µM
- number of binding sites n giving agreement between the two estimates of the partition coefficient (mP–gp; re-analysis of IAAP displacement, IAAP displaced for i ≥ n−1): 5
- KPW→Lb [1, 6]: 3.9 × 10^2
- KPW→Lb [1, 7]: 3.9 × 10^2
- KPW→P (P–gp): 6.9 × 10^4
- KPLb→P (P–gp): 176
- KPW→P [2]: 6.9 × 10^2
- KPLb→P [2]: 1.8
- LogKP, association with POPC bilayers [3]: 2.99
- critical aggregation concentration (CAC) [4]: 250 µM
- increase of CAC in the presence of co-solvent [4]: not significantly affected

SMILES: CCCCCCCCNc1ccc([N+](=O)[O-])c2nonc12 [NBD–C8]
- Ki (mP–gp): 4 µM
- KPW→Lb [1, 6]: 1.9 × 10^4
- KPW→Lb [1, 7]: 1.9 × 10^4
- KPW→P (P–gp): 2.3 × 10^5
- KPLb→P (P–gp): 12
- KPW→P [2]: 2.3 × 10^3
- KPLb→P [2]: 0.12
- LogKP, association with POPC bilayers [3]: 4.67
- critical aggregation concentration (CAC) [4]: 1 µM
- increase of CAC in the presence of co-solvent [4]: 4 fold
- time for equilibration between both membrane leaflets (translocation) ([5]; Section 3.4 and ref 77): within a few seconds

- Ki (mP–gp): 23 µM
SMILES: CCCCCCCCCCCCCC(=O)OCC(O)COP(=O)(O)OCCNc1ccc([N+](=O)[O-])c2nonc12 (centres unmarked) [NBD–LysoMPE]
- LogKP, partition coefficient for POPC bilayers [3]: 4.2
- critical aggregation concentration (CAC) [4]: 4 µM
- characteristic time of translocation between membrane leaflets [5]: several hours
